Laboratory results as given in ChEMBL document CHEMBL1201862, “PubChem BioAssay data set” (2004).
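48-hour exposure; five concentrations; linearly interpolated endpoints. GI50: concentration for 50% inhibition of growth.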 Active and inactive are the calls of the source. Cut-off read from the data, not from the text of the source: active = GI50 up to about 1.1 µM and inactive = higher.

Tests used:
Assay in all cases: growth of human tumour cells (NCI), 48 h
[1] = tested on: RXF 631
[2] = tested on: LXFL 529
[3] = tested on: MDA-N
[4] = tested on: PC-3
[5] = tested on: MDA-MB-231
[6] = tested on: Hs-578T
[7] = tested on: BT-549
[8] = tested on: T47D
[9] = tested on: MDA-MB-435

Measured: GI50

CCC1CN2CCc3cc(OC)c(OC)cc3C2CC1CC1c2cc(OC)c(OC)cc2CCN1C(=O)C(N)Cc1ccccc1.[O-][Cl+3]([O-])([O-])O (configuration not stated)
inactive: [1] 2.54 µM | [2] 1.67 µM

CC(=O)N1C(=O)/C(=C\C(=O)c2ccc(Cl)cc2)c2ccccc21
inactive: [3] 14.4 µM | [4] 11.4 µM | [5] 13.9 µM | [6] 19.5 µM | [7] 4.19 µM | [8] 16.5 µM | [9] 14.1 µM

CO/N=C1/c2sccc2[C@H](NC(=O)C(Cc2ccccc2)NC(=O)OC(C)(C)C)[C@@H]1O (some centres not stated)
inactive: [3] > 100 µM | [4] > 100 µM | [5] > 100 µM | [6] > 100 µM | [7] > 100 µM | [8] 63.2 µM | [9] > 100 µM

CNC(=S)N/N=C(/C)CCC/C(C)=N/NC(=S)NC
inactive: [3] > 100 µM | [4] 3.71 µM | [5] > 28.6 µM | [6] > 100 µM | [7] > 100 µM | [8] 1.23 µM | [9] > 71.8 µM

O=C(O)CSc1nnc(/C=C/c2ccccc2)[nH]1
inactive: [2] > 100 µM

N#CCCN(CCC#N)c1ccc(/C=C2\N=C(c3cc([N+](=O)[O-])ccc3Cl)N(S(=O)(=O)c3ccccc3)C2=O)cc1
inactive: [2] > 100 µM

CCCCN(CCCC)C(=O)C(=O)C(C(=O)C(=O)OC)c1nc2ccccc2o1 (configuration not stated)
inactive: [1] 79.3 µM | [2] > 100 µM

CC1(C)O[C@H]2OC(CO)C(OS(C)(=O)=O)[C@H]2O1 (some centres not stated)
inactive: [3] > 100 µM | [4] > 100 µM | [5] > 100 µM | [6] > 100 µM | [8] > 100 µM | [9] > 100 µM

CN(C)CCCNC(=O)c1c(-c2cccnc2)cnc2ccccc12
inactive: [3] > 100 µM | [4] > 100 µM | [7] > 100 µM

CSC(=S)N(C)c1nc(N(C)C)s[s+]1
inactive: [2] > 100 µM
